Data set [1] deals with Homo sapiens. In words: Intercompartmental clearance between central and peripheral compartments in solid organ transplant patient exhibiting 57 L/hr creatinine clearance infected with cytomegalovirus at 5 mg/kg, iv bid for 5 days followed by 900 mg of oral valganciclovir dosed twice daily for 16 days dose adjustment for renal function by final population pharmacokinetic model. Conditions: in vivo. The format is ADME, organism-based. The arrangement: dose 5 mg/kg, route oral.

The test system of data set [2] is Homo sapiens. Nature of the data set: Central volume of distribution in solid organ transplant patient exhibiting […] creatinine clearance infected with cytomegalovirus at 5 mg/kg, iv bid for 5 days followed by 900 mg of oral valganciclovir dosed twice daily for 16 days dose adjustment for renal function by final population pharmacokinetic model. The format is ADME, organism-based. Further details: dose 5 mg/kg, route oral. Conditions: in vivo.

For data set [3], the system named is Homo sapiens. In words: Clearance in solid organ transplant patient exhibiting […] creatinine clearance infected with cytomegalovirus at 5 mg/kg, iv bid for 5 days followed by 900 mg of oral valganciclovir dosed twice daily for 16 days dose adjustment for renal function by final population pharmacokinetic model. The format is ADME, organism-based. Further details: dose 5 mg/kg, route oral. Conditions: in vivo.

In data set [4] the test system is Homo sapiens. Nature of the data set: Drug absorption in solid organ transplant patient exhibiting […] creatinine clearance infected with cytomegalovirus assessed as first-order absorption rate constant at 5 mg/kg, iv bid for 5 days followed by 900 mg of oral valganciclovir dosed twice daily for 16 days dose adjustment for renal function. Conditions: in vivo. The format is ADME, organism-based. The arrangement: dose 5 mg/kg, route oral.

Data set [5] can be described thus: Bioavailability in solid organ transplant patient exhibiting […] creatinine clearance infected with cytomegalovirus at 5 mg/kg, iv bid for 5 days followed by 900 mg of oral valganciclovir dosed twice daily for 16 days dose adjustment for renal function by final population pharmacokinetic model. Format: ADME, organism-based. Conditions: human, in vivo.
Data set [6] relates to Homo sapiens. In words: Clearance in solid organ transplant patient exhibiting […] creatinine clearance infected with cytomegalovirus at 5 mg/kg, iv bid for 5 days followed by 900 mg of oral valganciclovir dosed twice daily for 16 days dose adjustment for renal function by basal population pharmacokinetic model. The arrangement: dose 5 mg/kg, route oral. Conditions: in vivo. Format: ADME, organism-based.

The subject of data set [7] is Homo sapiens. In words: Central volume of distribution in solid organ transplant patient exhibiting […] creatinine clearance infected with cytomegalovirus at 5 mg/kg, iv bid for 5 days followed by 900 mg of oral valganciclovir dosed twice daily for 16 days dose adjustment for renal function by basal population pharmacokinetic model. The arrangement: dose 5 mg/kg, route oral. Conditions: in vivo. Format: ADME, organism-based.

In data set [8] the test system is Homo sapiens. Nature of the data set: Intercompartmental clearance between central and peripheral compartments in solid organ transplant patient exhibiting 57 L/hr creatinine clearance infected with cytomegalovirus at 5 mg/kg, iv bid for 5 days followed by 900 mg of oral valganciclovir dosed twice daily for 16 days dose adjustment for renal function by basal population pharmacokinetic model. The format is ADME, organism-based. The arrangement: dose 5 mg/kg, route oral. Conditions: in vivo.

Data set [9] concerns Homo sapiens. Nature of the data set: Drug absorption in solid organ transplant patient exhibiting […] creatinine clearance infected with cytomegalovirus assessed as first-order absorption rate constant at 5 mg/kg, iv bid for 5 days followed by 900 mg of oral valganciclovir dosed twice daily for 16 days dose adjustment for renal function by basal population pharmacokinetic model. Conditions: in vivo. The arrangement: dose 5 mg/kg, route oral. The format is ADME, organism-based.

The nature of data set [10]: Bioavailability in solid organ transplant patient exhibiting 57 mL/min creatinine clearance infected with cytomegalovirus at 5 mg/kg, iv bid for 5 days followed by 900 mg of oral valganciclovir dosed twice daily for 16 days dose adjustment for renal function by basal population pharmacokinetic model. Conditions: human, in vivo.

Each structure is given as a SMILES string.

Here are results for one compound from ChEMBL document CHEMBL1671675, “Population pharmacokinetics of ganciclovir after intravenous ganciclovir and oral valganciclovir administration in solid organ transplant patients infected with cytomegalovirus” (Antimicrob Agents Chemother, 2009).

As to `Nc1nc(O)c2ncn(COC(CO)CO)c2n1` [GANCICLOVIR], the CL was found to be 10.2 L/h in the data set with Homo sapiens [1], 7.49 L/h in the data set with Homo sapiens [3], 6.34 L/h in the data set with Homo sapiens [6] and 9.65 L/h with Homo sapiens [8]. Further, the Vd with Homo sapiens [2] came out at 31.9 L; in the data set with Homo sapiens [7], 32 L. The results for the Ka in the data set on Homo sapiens [4] and in the data set with Homo sapiens [9] were 0.895 h⁻¹ and 0.971 h⁻¹, respectively. Further, the bioavailability – broadly, dose-corrected exposure relative to a reference, in per cent – turned out to be 82.5% in data set [5] and 76% in data set [10].
